In patent US20250388553A1 (Incyte Corporation, priority 2018, published 2025):
Where a name gives a salt, the structure may show the parent alone.

Assays:
[1] = biological target: PI3Kγ (p110γ) Recombinant Human Protein (Homo sapiens (Human), UniProt P48736); test: PI3K-γ scintillation proximity assay; type: biochemical; conditions: scintillation proximity assay, recombinant human p110γ
From the text: Example B. PI3K-γ Scintillation Proximity Assay
(§1) Materials: [γ-^33P]ATP (10 mCi/mL) and Wheat Germ Agglutinin (WGA) YSi SPA Scintillation Beads was purchased from Perkin Elmer (Waltham, MA). Lipid kinase substrate, D-myo-Phosphatidylinositol 4,5-bisphosphate (PtdIns(4,5)P2)D (+)-sn-1,2-di-O-octanoylglyceryl, 3-O-phospho linked (PIP2), CAS 204858-53-7, was purchased from Echelon Biosciences (Salt Lake City, UT). PI3Kγ (p110γ) Recombinant Human Protein was purchased from Life technology (Grand Island, NY). ATP, MgCl2, DTT, EDTA, MOPS and CHAPS were purchased from Sigma Aldrich (St. Louis, MO).
(§2) The kinase reaction was conducted in polystyrene 384-well Greiner Bio-one white plate from Thermo Fisher Scientific in a final volume of 25 L. Inhibitors were first diluted serially in DMSO and added to the plate wells before the addition of other reaction components. The final concentration of DMSO in the assay was 2%. The PI3Kγ assay was carried out at room temperature in 20 mM MOPS, pH 6.7, 10 mM MgCl2, 5 mM DTT and CHAPS 0.03%. Reactions were initiated by the addition of ATP, the final reaction mixture consisted of 20 µM […], 0.5 μCi [γ-^33P]ATP, 13 nM PI3Kγ. Reactions were incubated for 120 min and terminated by the addition of 40 μL SPA beads suspended in quench buffer: 163 mM potassium phosphate pH 7.8, 20% glycerol, 25 mM EDTA. The final concentration of SPA beads is 1.0 mg/mL. After the plate sealing, plates were shaken overnight at room temperature and centrifuged at 1500 rpm for 10 min, the radioactivity of the product was determined by scintillation counting on Topcount (Perkin-Elmer). IC50 determination was performed by fitting the curve of percent of the solvent control activity versus the log of the inhibitor concentration using the GraphPad Prism 6.0 software.
(§3) The compounds of the Examples were tested in the assays described in Examples A, B and C and found to have the IC50s are shown in Tables A1, A2, A3 and A4.

[2] = biological target: PI3Kδ (p1106/p85a) Recombinant Human Protein (Homo sapiens (Human), UniProt O00329); test: PI3Kδ scintillation proximity assay; type: biochemical; conditions: scintillation proximity assay, recombinant human PI3Kδ
From the text: Example C. PI3Kδ Scintillation Proximity Assay
as §1, with “PI3Kδ (p1106/p85a)” for “PI3Kγ (p110γ)”, “Eurofins (St Charles, MO).” for “Life technology (Grand Island, NY).”
as §2, with “25 μL.” for “25 L.”, “The PI3Kδ” for “The PI3Kγ”, “[γ-^33P]ATP, 3.4” for “[γ-^33P]ATP, 13”, “nM PI3Kδ.” for “nM PI3Kγ.”, “Topcount (PerkinElmer).” for “Topcount (Perkin-Elmer).”
as §3

Sequence of PI3Kγ (p110γ) Recombinant Human Protein (P48736 whole entry): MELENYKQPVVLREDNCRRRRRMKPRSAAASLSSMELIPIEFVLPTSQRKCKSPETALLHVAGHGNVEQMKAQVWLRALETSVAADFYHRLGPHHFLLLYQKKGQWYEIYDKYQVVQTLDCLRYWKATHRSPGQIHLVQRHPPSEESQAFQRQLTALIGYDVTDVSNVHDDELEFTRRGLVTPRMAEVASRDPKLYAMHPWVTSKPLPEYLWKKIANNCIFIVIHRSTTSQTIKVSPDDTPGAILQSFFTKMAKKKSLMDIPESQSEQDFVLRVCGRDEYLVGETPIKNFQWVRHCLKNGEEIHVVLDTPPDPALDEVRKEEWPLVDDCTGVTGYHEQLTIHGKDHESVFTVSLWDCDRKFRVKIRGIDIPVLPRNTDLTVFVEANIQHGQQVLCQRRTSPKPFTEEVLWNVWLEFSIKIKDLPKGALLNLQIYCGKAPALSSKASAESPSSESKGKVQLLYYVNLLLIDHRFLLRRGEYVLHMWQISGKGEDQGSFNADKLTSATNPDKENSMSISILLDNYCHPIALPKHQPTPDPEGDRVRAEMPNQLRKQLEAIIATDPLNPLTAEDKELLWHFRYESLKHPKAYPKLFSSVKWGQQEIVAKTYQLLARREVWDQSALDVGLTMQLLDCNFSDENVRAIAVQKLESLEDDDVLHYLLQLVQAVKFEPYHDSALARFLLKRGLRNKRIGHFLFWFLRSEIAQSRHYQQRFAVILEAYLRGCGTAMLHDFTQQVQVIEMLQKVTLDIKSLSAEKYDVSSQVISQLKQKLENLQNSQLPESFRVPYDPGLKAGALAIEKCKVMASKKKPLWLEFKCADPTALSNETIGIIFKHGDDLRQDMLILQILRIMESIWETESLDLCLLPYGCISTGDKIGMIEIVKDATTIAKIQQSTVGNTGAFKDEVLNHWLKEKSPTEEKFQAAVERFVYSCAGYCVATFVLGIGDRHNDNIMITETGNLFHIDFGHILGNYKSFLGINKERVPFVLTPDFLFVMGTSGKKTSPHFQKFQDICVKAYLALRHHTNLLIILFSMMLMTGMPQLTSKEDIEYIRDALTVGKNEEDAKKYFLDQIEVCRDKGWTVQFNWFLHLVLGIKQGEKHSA
Sequence of PI3Kδ (p1106/p85a) Recombinant Human Protein (O00329 whole entry): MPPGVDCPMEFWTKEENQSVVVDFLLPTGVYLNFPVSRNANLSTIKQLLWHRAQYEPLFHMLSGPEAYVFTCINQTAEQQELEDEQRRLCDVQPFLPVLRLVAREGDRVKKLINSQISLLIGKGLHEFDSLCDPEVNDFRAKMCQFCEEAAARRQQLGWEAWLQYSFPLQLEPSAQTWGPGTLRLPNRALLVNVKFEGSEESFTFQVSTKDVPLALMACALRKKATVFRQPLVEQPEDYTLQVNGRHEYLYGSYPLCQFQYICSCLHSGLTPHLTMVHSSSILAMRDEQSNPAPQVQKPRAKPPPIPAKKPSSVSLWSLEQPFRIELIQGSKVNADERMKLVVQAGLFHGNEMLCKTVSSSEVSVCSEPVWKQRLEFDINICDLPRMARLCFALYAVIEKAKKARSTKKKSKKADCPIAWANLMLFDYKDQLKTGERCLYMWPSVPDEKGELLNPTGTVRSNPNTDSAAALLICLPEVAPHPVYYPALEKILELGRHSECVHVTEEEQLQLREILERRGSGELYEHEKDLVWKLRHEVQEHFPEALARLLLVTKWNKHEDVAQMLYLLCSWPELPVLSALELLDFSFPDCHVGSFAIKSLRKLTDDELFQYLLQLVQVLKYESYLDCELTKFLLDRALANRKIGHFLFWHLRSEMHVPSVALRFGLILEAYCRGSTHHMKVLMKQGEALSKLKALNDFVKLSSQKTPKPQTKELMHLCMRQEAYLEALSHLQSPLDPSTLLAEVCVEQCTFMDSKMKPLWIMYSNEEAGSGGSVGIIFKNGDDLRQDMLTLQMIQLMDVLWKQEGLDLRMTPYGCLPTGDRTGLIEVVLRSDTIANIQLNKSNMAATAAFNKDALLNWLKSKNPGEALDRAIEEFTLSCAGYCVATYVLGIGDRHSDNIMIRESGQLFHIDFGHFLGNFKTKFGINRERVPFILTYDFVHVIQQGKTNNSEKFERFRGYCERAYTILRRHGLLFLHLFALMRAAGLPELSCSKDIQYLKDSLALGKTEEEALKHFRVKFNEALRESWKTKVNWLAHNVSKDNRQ
Sequence of PI3Kδ (p1106/p85a) Recombinant Human Protein (P27986 whole entry partner): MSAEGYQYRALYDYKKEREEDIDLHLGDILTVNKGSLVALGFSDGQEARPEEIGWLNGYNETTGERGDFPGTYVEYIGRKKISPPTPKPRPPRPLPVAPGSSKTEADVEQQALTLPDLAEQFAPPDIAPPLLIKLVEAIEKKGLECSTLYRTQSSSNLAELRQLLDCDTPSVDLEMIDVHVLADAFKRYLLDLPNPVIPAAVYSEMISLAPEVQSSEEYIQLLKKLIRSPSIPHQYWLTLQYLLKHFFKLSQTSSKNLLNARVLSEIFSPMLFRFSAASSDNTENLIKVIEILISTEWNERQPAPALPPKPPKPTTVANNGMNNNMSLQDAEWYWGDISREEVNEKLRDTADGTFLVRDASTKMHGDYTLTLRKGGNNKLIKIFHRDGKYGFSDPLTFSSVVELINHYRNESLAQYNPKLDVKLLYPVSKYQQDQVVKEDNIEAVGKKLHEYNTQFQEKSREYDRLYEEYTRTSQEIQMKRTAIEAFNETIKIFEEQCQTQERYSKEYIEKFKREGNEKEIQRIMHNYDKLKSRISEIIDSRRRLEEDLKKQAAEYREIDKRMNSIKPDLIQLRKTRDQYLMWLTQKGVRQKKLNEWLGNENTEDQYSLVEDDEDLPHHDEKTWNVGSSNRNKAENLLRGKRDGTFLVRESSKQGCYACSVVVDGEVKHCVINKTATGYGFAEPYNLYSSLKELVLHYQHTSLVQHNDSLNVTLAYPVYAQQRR

IC50 ([1]; Table A1)	IC50 ([2]; Table A1)	IC50 ([1]; Table A2)	IC50 ([2]; Table A2)	Compound
< 100 nM	< 100 nM			COC(C)(C)CNC(=O)c1nc(-c2cc(C(O)(C(N)=O)C(F)(F)F)ccc2C)cnc1N (stereo not shown) [Example 21, 3-amino-6-(5-(3-amino-1,1,1-trifluoro-2-hydroxy-3-oxopropan-2-yl)-2-methylphenyl)-N-(2-methoxy-2-methylpropyl)pyrazine-2-carboxamide trifluoroacetate]
< 100 nM	< 100 nM			Cc1ccc(C(O)(C(N)=O)C(F)(F)F)cc1-c1cnc(N)c(C(=O)NC23CC(C#N)(C2)C3)n1 (stereo not shown) [Example 23, 3-amino-6-(5-(3-amino-1,1,1-trifluoro-2-hydroxy-3-oxopropan-2-yl)-2-methylphenyl)-N-(3-cyanobicyclo[1.1.1]pentan-1-yl)pyrazine-2-carboxamide trifluoroacetate]
< 100 nM	< 100 nM			Cc1ccc(C(O)(C(N)=O)C(F)(F)F)cc1-c1cnc(N)c(C(=O)NC23CCC(C#N)(C2)C3)n1 (stereo not shown) [Example 24, 3-amino-6-(5-(3-amino-1,1,1-trifluoro-2-hydroxy-3-oxopropan-2-yl)-2-methylphenyl)-N-(4-cyanobicyclo[2.1.1]hexan-1-yl)pyrazine-2-carboxamide trifluoroacetate]
< 100 nM	< 100 nM			Cc1ccc(C(O)(C(N)=O)C(F)(F)F)cc1-c1cnc(N)c(C(=O)NC23CCC(C#N)(CC2)CC3)n1 (stereo not shown) [Example 25, 3-amino-6-(5-(3-amino-1,1,1-trifluoro-2-hydroxy-3-oxopropan-2-yl)-2-methylphenyl)-N-(4-cyanobicyclo[2.2.2]octan-1-yl)pyrazine-2-carboxamide trifluoroacetate]
< 100 nM	< 100 nM			Cc1ccc(C(O)(C(N)=O)C(F)(F)F)cc1-c1cnc(N)c(C(=O)N2CCC2(C)C)n1 (stereo not shown) [Example 27, 2-(3-(5-amino-6-(2,2-dimethylazetidine-1-carbonyl)pyrazin-2-yl)-4-methylphenyl)-3,3,3-trifluoro-2-hydroxypropanamide]
< 100 nM	100 to 500 nM			Cc1ccc(C(O)(C(N)=O)C(F)(F)F)cc1-c1cnc(N)c(C(=O)N2CCc3cccnc32)n1 (stereo not shown) [Example 28, 2-(3-(5-amino-6-(2,3-dihydro-1H-pyrrolo[2,3-b]pyridine-1-carbonyl)pyrazin-2-yl)-4-methylphenyl)-3,3,3-trifluoro-2-hydroxypropanamide]
< 100 nM	< 100 nM			CCNC(=O)c1nc(-c2cc(C(O)(C(N)=O)C(F)F)ccc2C)cnc1N (stereo not shown) [Example 32, 3-amino-6-(5-(1-amino-3,3-difluoro-2-hydroxy-1-oxopropan-2-yl)-2-methylphenyl)-N-ethylpyrazine-2-carboxamide]
< 100 nM	< 100 nM			Cc1ccc(C(O)(C(N)=O)C(F)F)cc1-c1cnc(N)c(C(=O)NCC2(C#N)CC2)n1 (stereo not shown) [Example 33, 3-amino-6-(5-(1-amino-3,3-difluoro-2-hydroxy-1-oxopropan-2-yl)-2-methylphenyl)-N-((1-cyanocyclopropyl)methyl)pyrazine-2-carboxamide]
< 100 nM	< 100 nM			Cc1ccc(C(O)(C(N)=O)C(F)F)cc1-c1cnc(N)c(C(=O)NC2CCC(F)(F)CC2)n1 (stereo not shown) [Example 34, 3-amino-6-(5-(1-amino-3,3-difluoro-2-hydroxy-1-oxopropan-2-yl)-2-methylphenyl)-N-(4,4-difluorocyclohexyl)pyrazine-2-carboxamide]
< 100 nM	< 100 nM			Cc1ccc(C(O)(C(N)=O)C(F)F)cc1-c1cnc(N)c(C(=O)NC(C)(C)CO)n1 (stereo not shown) [Example 35, 3-amino-6-(5-(1-amino-3,3-difluoro-2-hydroxy-1-oxopropan-2-yl)-2-methylphenyl)-N-(1-hydroxy-2-methylpropan-2-yl)pyrazine-2-carboxamide]
< 100 nM	< 100 nM			Cc1ccc(C(O)(C(N)=O)C(F)F)cc1-c1cnc(N)c(C(=O)NC2CCOCC2)n1 (stereo not shown) [Example 36, 3-amino-6-(5-(1-amino-3,3-difluoro-2-hydroxy-1-oxopropan-2-yl)-2-methylphenyl)-N-(tetrahydro-2H-pyran-4-yl)pyrazine-2-carboxamide]
< 100 nM	< 100 nM			Cc1ccc(C(O)(C(N)=O)C(F)F)cc1-c1cnc(N)c(C(=O)NCCC2CCOC2)n1 (stereo not shown) [Example 37, 3-amino-6-(5-(1-amino-3,3-difluoro-2-hydroxy-1-oxopropan-2-yl)-2-methylphenyl)-N-(2-(tetrahydrofuran-3-yl)ethyl)pyrazine-2-carboxamide]
< 100 nM	< 100 nM			Cc1ccc(C(O)(C(N)=O)C(F)(F)F)cc1-c1cnc(N)c(C(=O)NCC(F)(F)F)n1 (stereo not shown) [Example 38, 3-Amino-6-(5-(3-amino-1,1,1-trifluoro-2-hydroxy-3-oxopropan-2-yl)-2-methylphenyl)-N-(2,2,2-trifluoroethyl)pyrazine-2-carboxamide trifluoroacetate]
< 100 nM	100 to 500 nM			Cc1ccc(C(O)(CNC(=O)C(C)(C)O)C(F)(F)F)cc1-c1cnc(N)c(C(=O)NC(C)C)n1 (stereo not shown) [Example 41, 3-Amino-N-isopropyl-6-(2-methyl-5-(1,1,1-trifluoro-2-hydroxy-3-(2-hydroxy-2-methylpropanamido)propan-2-yl)phenyl)pyrazine-2-carboxamide trifluoroacetate]
		< 100 nM	100 to 500 nM	C/C=C\c1nc(-c2cc(C(O)(C(N)=O)C(F)(F)F)ccc2C)cnc1N (stereo not shown) [Example 44, (Z)-2-(3-(5-amino-6-(prop-1-en-1-yl)pyrazin-2-yl)-4-methylphenyl)-3,3,3-trifluoro-2-hydroxypropanamide]
		< 100 nM	100 to 500 nM	Cc1ccc(C(O)(C(N)=O)C(F)(F)F)cc1-c1cnc(N)c(C(F)(F)F)n1 (stereo not shown) [Example 46, 2-(3-(5-Amino-6-(trifluoromethyl)pyrazin-2-yl)-4-methylphenyl)-3,3,3-trifluoro-2-hydroxypropanamide trifluoroacetate]
		< 100 nM	< 100 nM	COCC#Cc1nc(-c2cc(C(O)(C(N)=O)C(F)(F)F)ccc2C)cnc1N (stereo not shown) [Example 47, 2-(3-(5-amino-6-(3-methoxyprop-1-ynyl)pyrazin-2-yl)-4-methylphenyl)-3,3,3-trifluoro-2-hydroxypropanamide trifluoroacetate]
		< 100 nM	< 100 nM	Cc1ccc(C(O)(C(N)=O)C(F)(F)F)cc1-c1cnc(N)c(C#CC2CC2)n1 (stereo not shown) [Example 48, 2-(3-(5-amino-6-(cyclopropylethynyl)pyrazin-2-yl)-4-methylphenyl)-3,3,3-trifluoro-2-hydroxypropanamide]
		< 100 nM	< 100 nM	Cc1ccc(C(O)(C(N)=O)C(F)(F)F)cc1-c1cnc(N)c(C#CC(C)(C)O)n1 (stereo not shown) [Example 50, 2-(3-(5-amino-6-(3-hydroxy-3-methylbut-1-ynyl)pyrazin-2-yl)-4-methylphenyl)-3,3,3-trifluoro-2-hydroxypropanamide]
		< 100 nM	< 100 nM	Cc1ccc(C(O)(C(N)=O)C(F)(F)F)cc1-c1cnc(N)c(C#CCC(C)O)n1 (stereo not shown) [Example 51, 2-(3-(5-amino-6-(4-hydroxypent-1-ynyl)pyrazin-2-yl)-4-methylphenyl)-3,3,3-trifluoro-2-hydroxypropanamide]
